The values below come from patent publication US5561234A, “1-(7-chloroquinolin-4-yl)pyrazole-3-carboxamide N-oxide derivatives, method of preparing them, and their pharmaceutical compositions” (Sanofi, priority 1994, dated 1996).

A short description of this data set: comparative solubility study, saturated solutions at 25° C., assayed by liquid chromatography. In kind it is physicochemical. Here is the method: The media studied are water, ethanol and a water/polyethylene glycol 400 mixture (70/30 v/v).
The solubility measurements were made at 25° C. after stirring of the saturated solutions for 3 or 5 hours.
After achieving conditions under which the products solubilized in water are not adsorbed on certain filters, the solutions are filtered and then assayed by liquid chromatography (column μmBondapak C18, eluent acetonitrile/trifluoroacetic acid, detection at 254 nm, flow rate 1 ml/minute).

Where [1] appears, read: organic solvent or mixture, ethanol, stirring of saturated solution for 3 or 5 hours, read-out: solubility in ethanol.
Setting [2] is: water, stirring of saturated solution for 3 or 5 hours, read-out: solubility in water.
Setting [3] is: water/peg 400 70/30, organic solvent or mixture, water/polyethylene glycol 400 mixture (70/30 v/v), stirring for 3 or 5 hours, read-out: solubility in water/PEG.

Converted amounts (≈) assume the structure as drawn. Like-named read-outs stand apart in the source and are kept apart here.

For the molecule `COc1cccc(OC)c1-c1cc(C(=O)NC2(C(=O)O)C3CC4CC(C3)CC2C4)nn1-c1cc[n+]([O-])c2cc(Cl)ccc12` (stereo not drawn) [EXAMPLE 2, 2-{[1-(1-oxido-7-chloroquinolin-4-yl)-5-(2,6-dimethoxyphenyl)-pyrazol-3-yl]carbonylamino}adamantane-2-carboxylic acid], the solubility turned out to be 10300 µg/mL (≈ 17100 µM) under setting [1], 1.7 µg/mL (≈ 2.82 µM) under setting [2] and 30 µg/mL (≈ 49.7 µM) under setting [3].

As to `COc1cccc(OC)c1-c1cc(C(=O)NC2(C(=O)O)C3CC4CC(C3)CC2C4)nn1-c1ccnc2cc(Cl)ccc12` (stereo not drawn) [SR48692, 2-{[1-(7-Chloroquinolin-4-yl)-5-(2,6-dimethoxyphenyl)pyrazol-3-yl]carbonylamino}adamantane-2-carboxylic acid], the solubility is 1300 µg/mL (≈ 2210 µM) under setting [1], 0.4 µg/mL (≈ 0.681 µM) under setting [2] and less than 1 µg/mL under setting [3].
